Key:
[1] = test system: intracellular proteins, including tubulin and actin; experiment: binding of cyanine targeting molecules to intracellular proteins
Source text: (§1) The present targeting molecule is very selective and very specific in binding to necrotic cells. […] For the present invention four specific cyanines are selected, namely HQ4, HQ5, CW-800 and ZW-800. These molecules are found to have a high affinity towards the intracellular proteins, including tubulin and actin. […] As a result very low concentrations c.q. amounts of the present system may be used to provide advantageous effects thereof. It is noted that apoptosis specific probes, in contrast to necrosis specific probes will also target healthy tissue as apoptosis is involved in normal tissue turnover. The present cyanine is attached to a second entity, namely a chelator, wherein the chelator is selected from DOTA and NOTA (DOTA: 1,4,7,10-Tetraazacyclododecane-1,4,7,10-tetraacetic acid and NOTA: 1,4,7-triazacyclononane-N,N′,N″-triacetic acid). Attached to the chelator is attached a third entity, namely a radionuclide selected from Cu, In, Gd, Ga, Lu, Y, I, and Zr. The present system is found to be effective as a medicament, also referred to as drug, for cancers selected from esophagus, pharynx and larynx, lung, brain, and intestines. These cancers are considered to relate to and being associated with the Central Nervous system, the respiratory tract, the gastro-intestinal tract, […], and head-neck region, respectively. […]

[2] = clearance of the cyanines in the human body; type: in vivo
Source text: as §1

Structure (SMILES): CC1(C)C(/C=C/C2=C(Oc3ccc(S(=O)(=O)O)cc3)C(=C/C=C3/N(CCCCS(=O)(=O)O)c4ccc(S(=O)(=O)[O-])cc4C3(C)C)/CCC2)=[N+](CCCCCC(=O)O)c2ccc(S(=O)(=O)O)cc21 [CW-800]
- affinity towards the intracellular proteins [1]: high affinity
- clearance in the human body [2]: cleared in the human body specifically well
